Source: BindingDB's records for doi:10.1080/14756360802608351 (Ataturk University, 2009)

The compounds below were run against Serum paraoxonase/arylesterase 1 (Homo sapiens, UniProt P27169) (assay: Paraoxonase Activity Assay). Conditions: pH 10.5; 25 °C.
Excerpt: The enzyme assay was based on the estimation of p-nitrophenol at 412nm. The molar extinction coefficient of p-nitrophenol was used to calculate enzyme activity.

Serum paraoxonase/arylesterase 1, sequence (P27169 whole entry): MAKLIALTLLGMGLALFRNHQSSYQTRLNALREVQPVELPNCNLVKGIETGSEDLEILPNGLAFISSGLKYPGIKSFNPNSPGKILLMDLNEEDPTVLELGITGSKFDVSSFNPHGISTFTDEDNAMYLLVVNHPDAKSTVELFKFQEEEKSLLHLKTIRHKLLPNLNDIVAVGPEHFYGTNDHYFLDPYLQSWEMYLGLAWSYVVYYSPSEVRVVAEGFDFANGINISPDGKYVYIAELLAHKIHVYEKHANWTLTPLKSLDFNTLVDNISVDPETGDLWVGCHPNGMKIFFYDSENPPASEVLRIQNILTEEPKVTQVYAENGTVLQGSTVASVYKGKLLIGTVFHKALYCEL

Row | IC50 [µM] | Ki [µM] | Compound
1 | 195 | 97 | COc1ccc2c(c1)c(CC(=O)O)c(C)n2C(=O)c1ccc(Cl)cc1 [indometacin]
2 | 340 | 306 | CN1C(C(=O)Nc2ccccn2)=C(O)c2sccc2S1(=O)=O [Tenoxicam]

Second part, the compound before the results:

Row | Compound | IC50 [µM] | Ki [µM]
3 | CN1C(C(=O)Nc2ccccn2)=C(O)c2sc(Cl)cc2S1(=O)=O [Lornoxicam] | 136 | 9
4 | CCCC1CC(C(=O)NC(C(C)O)C2OC(SC)C(O)C(O)C2O)N(C)C1 (stereo not given) [Lincomycine] | 9640 | 11100
5 | CC(C(=O)O)c1cccc(C(=O)c2ccccc2)c1 (stereo not given) [2-(3-benzoylphenyl)propanoic acid] | 6230 | 13000
